From PubChem BioAssay AID179 (DTP/NCI, 2004)
Active and inactive are the calls of the source.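 How the source made its calls: active means compounds giving half or more protection of infected cells from virus-caused growth loss, again on retest; inactive means the rest.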

Test system: CEM cells HIV-1 protection, formazan growth assay
Assay: NCI AIDS Antiviral Assay
Conditions: for IC50: measured here: growth of uninfected CEM cells
In short: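 Soluble formazan readout of cell growth; CEM cells ± HIV-1; 5 drug concs. ≥50% protection → retest; ≥50% again = moderately active; reproducible 100% = confirmed active.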

| SMILES | EC50 [µM] | IC50 [µM] | outcome |
| --- | --- | --- | --- |
| Fc1ccc(C2SCc3nc4ccccc4n32)cc1Cl (stereo unspecified) | > 72.4 | 25.7 | – |
| CCOC(=O)/C=C(/C=C\COC1CCCCO1)c1ccccc1 (stereo unspecified) | > 74.1 | 36.3 | – |
| C[C@@H](NC(=O)[C@@H]1C[C@]1(C)CO)c1cccc2ccccc12 | > 200 | > 200 | – |
| CCOP(=O)(CN=C(c1ccccc1)c1ccccc1)OCC | > 200 | > 200 | – |
| CC(C)=CCc1c(-c2ccc(O)cc2OC2OC(CO)C(O)C(O)C2O)oc2c3c(cc(O)c2c1=O)OC(C)(C)C=C3 (stereo unspecified) | > 58.9 | > 58.9 | – |
| Cc1csc([C@H]2CCC3[C@@H]4CC=C5C[C@@H](OC(=O)CCC(=O)O)CC[C@]5(C)C4CC[C@@]32C)n1 (stereo partly specified) | > 52.5 | 33.1 | – |
| Cc1ccccc1/C=C1/N=C(c2ccccc2)OC1=O | > 200 | 33.1 | – |
| O=c1c2c3c(sc2nc(CN2CCNCC2)n1-c1ccccc1)CCCC3 | > 100 | > 100 | – |
| C/C(CC(=O)Nc1cccc(Cl)c1C)=N\NC(N)=S | > 120 | > 120 | – |
| CNC(=O)CN(CC(N)=O)C(N)=O | > 191 | > 191 | – |
| C/C(=N/NC(=O)CC(=O)N(C(=O)c1ccccc1Cl)c1ccc(C)cc1)c1cc2ccccc2oc1=O | > 10 | > 10 | – |
| CC1N=C(SCC(=O)c2ccc(Cl)cc2)N2C(C)N=C(SCC(=O)c3ccc(Cl)cc3)N12 (stereo unspecified) | > 19.5 | > 19.5 | – |
| CC(=O)N[C@H]1CC2(C=C(Br)C(=O)C(Br)=C2)OC1=O | > 33.1 | 5.13 | – |
| O=c1c(Sc2c(O)c3ccccc3c3ccccc3c2=O)c(O)c2ccccc2c2ccccc12 | – | – | inactive |
| O=C(CCc1n[nH]c(=S)o1)Nc1ccc(Cl)cc1Cl | > 31.6 | > 31.6 | – |
| Cc1cccc(NC(=O)C(=O)Cc2nc3ccccc3[nH]c2=O)c1C | – | – | inactive |
| COc1cc2c(C)cc(=O)oc2cc1O | > 457 | 148 | – |
| NC(=O)CNC(=O)c1ccccc1SC(=O)CCC[n+]1ccccc1 | 1.17 | 25.7 | – |
| COC(c1ccc(C(C)(C)C)cc1)(c1ccc(C(C)(C)C)cc1)c1cc(C(O)(c2cc(C(OC)(c3ccc(C(C)(C)C)cc3)c3ccc(C(C)(C)C)cc3)c(C)cc2C)c2cc(C(OC)(c3ccc(C(C)(C)C)cc3)c3ccc(C(C)(C)C)cc3)c(C)cc2C)c(C)cc1C | – | – | inactive |
| COC(=O)c1cc(C(=CC(=O)N[C@H]2CC[C@]3(C)C4CC[C@]5(C)[C@@H](C(C)CCCC(C)C)CC[C@H]5C4CC[C@H]3C2)c2cc(Cl)c(OC)c(C(=O)OC)c2)cc(Cl)c1OC (stereo partly specified) | > 100 | > 100 | – |

| SMILES | EC50 [µM] | IC50 [µM] | outcome |
| --- | --- | --- | --- |
| CCOC(=O)CN1C(=O)c2cc([N+](=O)[O-])cc3cc([N+](=O)[O-])cc(c23)C1=O | – | – | inactive |
| CCc1cc(CCC(=O)Nc2ccccc2[N+](=O)[O-])[nH]c(=S)n1 | > 759 | > 759 | – |
| COc1ccc([C@]23CCC4(OCC(C)(C)CO4)[C@H]4CON(O[C@H](O[C@@H]5CCCCC5C(C)(C)c5ccccc5)C2)[C@@H]43)cc1OC (stereo partly specified) | > 50.1 | > 50.1 | – |
| C=CCC12CC(COc3ccccc3C(N)=O)OC1=Nc1ccccc1NC2=O (stereo unspecified) | > 200 | > 200 | – |
| O=NN1CCCS1(=O)=O | > 200 | > 200 | – |
| C=CCCCC1(C)CCNC1=S (stereo unspecified) | > 513 | > 513 | – |
| Cc1ccc(/C=C/C(=O)Oc2ccc(/C=C3\CCC/C(=C\c4ccc(OC(=O)/C=C/c5ccc(C)cc5)cc4)C3=O)cc2)cc1 | > 100 | > 100 | – |
| NC(=O)NCCCC(NC(=O)OCCCCCCn1ccc(=O)[nH]c1=O)C(=O)O (stereo unspecified) | > 200 | 32.4 | – |
| CSc1nc(NC2OC(COC(C)=O)C(OC(C)=O)C(OC(C)=O)C2OC(C)=O)c(N=C(C)C(C)=O)c(=O)n1C (stereo unspecified) | – | – | inactive |
| COc1cc(C(C)O)c[n+](Cc2ccccc2)c1 (stereo unspecified) | > 302 | > 302 | – |
| CN1CC2=C(NC(=S)NC2c2ccccc2Cl)/C(=C/c2ccccc2Cl)C1 (stereo unspecified) | > 200 | 13.2 | – |
| Cc1ccncc1.Cc1ccncc1.O=[N+]([O-])[O-].O=[N+]([O-])[O-].[Pt+2] | > 148 | 69.2 | – |
| Cc1ccc2c(c1)-c1nc(N)c(C#N)c(-c3ccccc3)c1CCS2(=O)=O | > 200 | > 200 | – |
| CC(C)CC(=O)NC(NC(C)C)(C(F)(F)F)C(F)(F)F | > 200 | > 200 | – |
| NS(=O)(=O)c1ccc(CNC(=O)c2ccccc2SC(=O)OCCCCCl)cc1 | 4.68 | 129 | – |
| Cc1c(NC(=O)CCl)c(=O)oc2c(C)c3occc(=O)c3cc12 | > 40.7 | 0.204 | – |
| O=C(CCCN1CCC(Nc2ccc(F)cc2)(c2nnnn2C2CCCCC2)CC1)c1ccc(F)cc1 | > 200 | 16.6 | – |
| COC(=O)C(=O)C(C(=O)C(=O)Nc1ccc([N+](=O)[O-])cc1)c1nc2ccccc2[nH]c1=O (stereo unspecified) | > 575 | 72.4 | – |
| C=CCOc1cc(NC(=S)c2ccoc2C)ccc1OC | 0.141 | 117 | – |
| N#Cc1nc(C(=O)c2ccccc2)oc1N | > 200 | > 200 | – |

| SMILES | EC50 [µM] | IC50 [µM] | outcome |
| --- | --- | --- | --- |
| CNC(=O)N(CCC#N)CCN(C(=O)N(C)C)c1ccccc1 | > 200 | > 200 | – |
| CC1=C(C#N)c2nc3ccccc3n2C(=O)C1(C)CCO (stereo unspecified) | > 200 | > 200 | – |
| CC1(C)OC(=O)NC1=O | – | – | inactive |
| CC(=O)OCC1OC(OC2=C(c3ccccc3)C(=O)C(OC3OC(COC(C)=O)C(OC(C)=O)C(OC(C)=O)C3OC(C)=O)=C(c3ccccc3)C2=O)C(OC(C)=O)C(OC(C)=O)C1OC(C)=O (stereo unspecified) | > 33.9 | 5.89 | – |
| S=c1sc2c(Cl)nc(Cl)nc2n1-c1ccccc1 | > 31.6 | > 31.6 | – |
| C/C1=C/C(=O)O[C@@H]2C[C@@H](CC[C@H](C)/C=C\C=C\CC1)O[C@@](O)([C@@H]1CSC(=O)N1)C2 | > 2 | 0.363 | – |
| CN1Cc2cc3cc4c(cc3nc2N(C)C1)OCCO4 | > 200 | 162 | – |
| O=C(Nc1ccccc1)N1C(c2ccccc2)=N[C@@H](c2ccccc2)[C@@H]1c1ccccc1 | – | – | inactive |
| O=C(/C=C/c1ccc(O)cc1)OCC1OC(Oc2cc(O)c3c(c2)OC(c2ccc(O)cc2)CC3=O)C(O)C(O)C1O (stereo unspecified) | > 51.3 | 27.5 | – |
| C=C1CN(Cc2ccccc2)[C@@H]2CCCCC[C@H](C#N)[C@H]12 | > 200 | 123 | – |
| CCCCc1c2c(nc3c1CCc1cc4cc5c(nc4nc1-3)-c1nc3c(c(CCCC)c1CC5)CCCC3=O)C(=O)CCC2 | > 100 | 0.457 | – |
| Cc1cc(=O)oc2c(CNC(C(=O)O)C(C)O)c(O)ccc12 (stereo unspecified) | > 200 | > 200 | – |
| COc1cc(C(c2cccc3ccccc23)N2C(=O)CCC2C(=O)NCc2ccccc2)cc(OC)c1OC (stereo unspecified) | > 200 | > 200 | – |
| Cc1c2ccc(Cl)cc2nc2ccc(OCCCCCCNC(=O)CCCN=C(N)N)cc12 | > 50.1 | 22.9 | – |
| CC(=O)OCc1ccc2c(c1)C(O)NC(=O)O2 (stereo unspecified) | > 200 | 105 | – |
| CCCCCCCCSC(SCCCCCCCC)=C1C(=O)N(c2ccccc2)N=C1C | > 28.8 | > 28.8 | – |
| CCCCCC(=O)N1SC(NC(=O)OC)=Nc2ccccc21 | > 155 | 8.32 | – |
| C/C(CC(=O)Nc1ccccc1C)=N/NS(=O)(=O)c1ccc(C)cc1 | > 363 | > 363 | – |
| O=S(=O)(SSS(=O)(=O)c1ccc(Cl)c(Cl)c1)c1ccc(Cl)c(Cl)c1 | > 53.7 | > 53.7 | – |
